The source of these data is ChEMBL document CHEMBL1201862, “PubChem BioAssay data set” (2004).

Common to all, as to assay: NCI tumour cell line growth inhibition, 48 h
The subject of experiment [1] is CAKI-1.
In experiment [2] the test system is HCC 2998.
For experiment [3], the system named is HOP-92.
In experiment [4] the test system is HT-29.
Experiment [5] has as its system Hs-578T.
Experiment [6] has as its system LOX IMVI.
The subject of experiment [7] is MCF7.
Experiment [8] concerns NCI-H23.
The subject of experiment [9] is OVCAR-8.
Experiment [10] deals with PC-3.
In experiment [11] the test system is SF-295.
In experiment [12] the test system is SN12C.
The subject of experiment [13] is SNB-19.
The subject of experiment [14] is T47D.
The test system of experiment [15] is UACC-62.
Experiment [16] concerns A498.
Experiment [17] relates to RPMI-8226.

The structures appear in SMILES notation.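 Step 1: Grow cells in 96-well plates. Step 2: Expose to compound for 48 hours at 5 concentrations. Step 3: Interpolate endpoints linearly; if unreached, use highest concentration. Here, GI50 denotes the concentration required for 50% inhibition of growth.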 Calls of active or inactive are those of the source. Rule as the data show it: active = GI50 up to about 1.1 µM and inactive = higher.

For the compound `CC1=C(C(=O)OCc2ccncc2)C(C2=C(C)SCCS2)C(C(=O)OCc2ccncc2)=C(C)N1`, the GI50 in [1] was 26.3 µM (inactive); in [2] it was > 10 µM (inactive); in [3], 12.3 µM (inactive); in experiment [4] it was 17.9 µM (inactive); in [5], 10.6 µM (inactive); in experiment [6] it was 18.8 µM (inactive). In addition, the GI50 in experiment [7] is 20.8 µM (inactive); in experiment [8] it was 24.2 µM (inactive); in experiment [9], 26.4 µM (inactive); in [10] it was 20.9 µM (inactive); in experiment [11], 18.2 µM (inactive); in [12] it was 25.1 µM (inactive). Moreover, the values for the GI50 in experiment [13], in experiment [14] and in [15] were 29.1 µM (inactive), 16.1 µM (inactive) and 16.3 µM (inactive), respectively.
Turning to `O=C1C(/N=N/c2ccc(-c3nc4ccccc4o3)cc2)NC(=S)N1c1ccccc1` (configuration not stated), the GI50 in experiment [1] was 90.8 µM (inactive); in [2] it was > 100 µM (inactive); in experiment [3], 59.6 µM (inactive); in [4], > 100 µM (inactive); in experiment [5], > 100 µM (inactive); in experiment [6], 35.5 µM (inactive). Moreover, the GI50 was 33.2 µM (inactive) in [7]; > 100 µM (inactive) in experiment [8]; 60.3 µM (inactive) in [9]; > 100 µM (inactive) in experiment [10]; > 100 µM (inactive) in [11]; 0.692 µM (active) in experiment [12]. The results for the GI50 in [13], in experiment [14] and in experiment [15] were > 100 µM (inactive), 22.9 µM (inactive) and 80.2 µM (inactive), respectively.
Turning to `CC(C)(C)c1cc(C2NC(=O)NC2=O)cc(C(C)(C)C)c1O` (configuration not stated), the GI50 was > 100 µM (inactive) in experiment [16]; > 100 µM (inactive) in [1]; 38.1 µM (inactive) in experiment [3]; 46.5 µM (inactive) in experiment [4]; 20.5 µM (inactive) in experiment [5]; > 100 µM (inactive) in experiment [6]. The GI50 in [7] was 24.7 µM (inactive); in [8], 56.8 µM (inactive); in [9] it was 85.7 µM (inactive); in experiment [10], 71.9 µM (inactive); in experiment [17], 66.5 µM (inactive); in [11], 64.4 µM (inactive). Moreover, the values for the GI50 in [13], in [14] and in experiment [15] were > 100 µM (inactive), 46 µM (inactive) and 45.1 µM (inactive), respectively.
Turning to `COc1ccc2c(c1)[n+]([O-])c1cc(C#N)ccc1[n+]2[O-]`, the GI50 in experiment [1] was 4.09 µM (inactive); in experiment [3], 6.56 µM (inactive); in experiment [4] it was 2.87 µM (inactive); in experiment [5] it was 2.07 µM (inactive); in experiment [6] it was 3.3 µM (inactive); in experiment [7], 4.84 µM (inactive). For the same compound, the GI50 is 0.849 µM (active) in [8]; 15.4 µM (inactive) in experiment [9]; 2.43 µM (inactive) in experiment [10]; 0.767 µM (active) in experiment [11]; 3.17 µM (inactive) in experiment [12]; 7.87 µM (inactive) in experiment [13]. Further, the GI50 in experiment [14] is 11.7 µM (inactive); in [15], 2.94 µM (inactive).
With `CNNC1=NS(=O)(=O)c2cc(C#N)c(Cl)cc2S1`, the GI50 in experiment [16], in experiment [1], in experiment [2], in experiment [4], in experiment [5] and in experiment [6] was > 10 µM (inactive) in each case. Moreover, the GI50 in experiment [7] is 0.00303 µM (active); in experiment [8], > 10 µM (inactive); in experiment [9] it was > 10 µM (inactive); in experiment [10], > 10 µM (inactive); in [17] it was > 10 µM (inactive); in [11], > 10 µM (inactive). For the same compound, the GI50 in experiment [12], in experiment [13], in experiment [14] and in [15] was > 10 µM (inactive) throughout.
`N#CC(NCCc1ccccc1)c1ccc(C(C#N)NCCc2ccccc2)cc1` (configuration not stated): the GI50 in experiment [16] is > 100 µM (inactive); in experiment [1], > 100 µM (inactive); in [2] it was 83.9 µM (inactive); in [3] it was > 100 µM (inactive); in experiment [4], 49.2 µM (inactive); in experiment [5] it was 71.8 µM (inactive). The GI50 in experiment [6] is 45.1 µM (inactive); in experiment [7], 55.5 µM (inactive); in [8], 30.7 µM (inactive); in experiment [9], 73.6 µM (inactive); in experiment [10], > 100 µM (inactive); in [11] it was > 100 µM (inactive). Besides, the GI50 in [12] was 97.5 µM (inactive); in [13], 61.2 µM (inactive); in experiment [14], > 100 µM (inactive); in [15], > 100 µM (inactive).
For the compound `CNc1cccc2c1C(C)C[C@]1(C)C(=O)Nc3ccccc3[C@H]21` (some centres not stated), the GI50 is 24 µM (inactive) in experiment [16]; 26.5 µM (inactive) in [1]; 51.3 µM (inactive) in experiment [2]; 28 µM (inactive) in [4]; 27.7 µM (inactive) in [5]; 15.8 µM (inactive) in experiment [6]. Further, the GI50 was 22.3 µM (inactive) in [7]; 60.1 µM (inactive) in experiment [8]; 19.1 µM (inactive) in experiment [9]; 27.4 µM (inactive) in experiment [10]; 54.6 µM (inactive) in [17]; 17.7 µM (inactive) in experiment [11]. Moreover, the GI50 in experiment [12] is 21 µM (inactive); in experiment [13], 23 µM (inactive); in [14] it was 41.1 µM (inactive); in [15] it was 37.7 µM (inactive).
As to `CSC1=C(c2ccc(Cl)cc2)SC(N2CCCCC2)N1c1ccc([N+](=O)[O-])cc1` (configuration not stated), the GI50 was 19 µM (inactive) in [16]; 44.8 µM (inactive) in experiment [1]; 41.9 µM (inactive) in experiment [2]; 26.7 µM (inactive) in [3]; 30.6 µM (inactive) in experiment [4]; 47.9 µM (inactive) in experiment [5]. Further, the GI50 was 30.6 µM (inactive) in experiment [6]; 35.6 µM (inactive) in [7]; 23 µM (inactive) in experiment [8]; 32.1 µM (inactive) in experiment [9]; 18.5 µM (inactive) in [10]; 16.6 µM (inactive) in experiment [17]. In addition, the GI50 in experiment [11] was 24 µM (inactive); in [13] it was 28.8 µM (inactive); in [14], 23.9 µM (inactive); in experiment [15], 17.5 µM (inactive).
As for `COC(=O)/C=C(/OC)[C@H](C)[C@H](/C=C/c1csc(-c2csc(C(C)C)n2)n1)OC`, the GI50 is 5.97 µM (inactive) in experiment [16]; 7.08 µM (inactive) in [1]; 6.07 µM (inactive) in experiment [3]; 0.29 µM (active) in experiment [4]; > 57.8 µM (inactive) in experiment [5]; 0.0838 µM (active) in experiment [6]. For the same compound, the GI50 is 0.178 µM (active) in experiment [7]; 0.569 µM (active) in experiment [8]; 0.785 µM (active) in experiment [9]; 0.126 µM (active) in experiment [10]; 0.373 µM (active) in experiment [17]; 0.0681 µM (active) in experiment [11]. Further, the GI50 in [12] is 10.3 µM (inactive); in experiment [14], 1.4 µM (inactive); in experiment [15], 0.33 µM (active).
On to `O=C1C=C(NCCOCCO)C(=O)c2c(O)ccc(O)c21`, for which the GI50 in experiment [16] is > 100 µM (inactive); in experiment [1], 43.3 µM (inactive); in experiment [2], 17.5 µM (inactive); in experiment [3], 24.3 µM (inactive); in [4] it was 20.4 µM (inactive); in [5], 34.4 µM (inactive). Also, the GI50 in experiment [6] is 15.6 µM (inactive); in [7], 16 µM (inactive); in [8] it was 23.4 µM (inactive); in experiment [9], 28.2 µM (inactive); in [10], 28.1 µM (inactive); in [17], 22.7 µM (inactive). Moreover, the GI50 in [11] is 47.4 µM (inactive); in experiment [13] it was 32.4 µM (inactive); in [14] it was 23.8 µM (inactive); in experiment [15] it was 14.5 µM (inactive).
On to `Nc1nc2c(ncn2C2C=CC(COS(N)(=O)=O)C2)c(=O)[nH]1` (configuration not stated), for which the GI50 in experiment [1], in experiment [2], in experiment [3], in [4], in [5] and in experiment [6] was > 100 µM (inactive) throughout. Also, the GI50 in [7], in experiment [8], in [9], in experiment [10], in [17] and in [11] was > 100 µM (inactive) throughout. Also, the GI50 in experiment [12], in experiment [13], in experiment [14] and in [15] was > 100 µM (inactive) each time.
On to `C=C1C(=O)O[C@H]2C(=O)[C@H](C)CCC/C(C)=C/CC[C@@]3(C)O[C@@H]3C[C@@H]12`, for which the GI50 in experiment [16] was 18.4 µM (inactive); in [1], 1.67 µM (inactive); in experiment [3], 1 µM (active); in experiment [4], 1.9 µM (inactive); in experiment [5] it was 6.34 µM (inactive); in experiment [6], 1.49 µM (inactive). Also, the GI50 in experiment [7] is 3.02 µM (inactive); in experiment [8], 14 µM (inactive); in [9], 1.69 µM (inactive); in [10], 6.76 µM (inactive); in experiment [17], 2.25 µM (inactive); in experiment [11] it was 14 µM (inactive). The GI50 in experiment [12] is 5.53 µM (inactive); in [13] it was 11.4 µM (inactive); in [14], 2.01 µM (inactive); in [15] it was 5.06 µM (inactive).
For the compound `O[C@H]1[C@H]2c3cc4c(cc3CN3CCC(=C[C@@H]1O)[C@H]23)OCO4` [LYCORINE], the GI50 in [16] was 2.96 µM (inactive); in [1] it was 1.24 µM (inactive); in experiment [2], 2.33 µM (inactive); in [4] it was 1.46 µM (inactive); in [5] it was 2.91 µM (inactive); in experiment [6] it was 0.971 µM (active). Besides, the GI50 was 0.201 µM (active) in [7]; 2.42 µM (inactive) in [8]; 1.53 µM (inactive) in experiment [9]; 1.45 µM (inactive) in experiment [10]; 2.01 µM (inactive) in experiment [17]; 2.69 µM (inactive) in [11]. Moreover, the GI50 in experiment [12] was 1.7 µM (inactive); in experiment [13], 2.11 µM (inactive); in [14], 2.49 µM (inactive); in experiment [15], 2.08 µM (inactive).
